Source: PMC8958504 (Journal of Medicinal Chemistry, 2022)
Several values for one entry are separate records, joined by “and”; a condition that tells them apart may be missing. Equal entries are not always repeated. Entries after “also recorded” stand apart in the source; their conditions may differ.

Tests used:
hMAO-A = target: T1, hMAO-A (Homo sapiens, UniProt P21397); test: biochemical; conditions: read-out: hMAO-A (IC50); recombinant hMAO-A, p-tyramine substrate
T1 sequence (P21397 1-527): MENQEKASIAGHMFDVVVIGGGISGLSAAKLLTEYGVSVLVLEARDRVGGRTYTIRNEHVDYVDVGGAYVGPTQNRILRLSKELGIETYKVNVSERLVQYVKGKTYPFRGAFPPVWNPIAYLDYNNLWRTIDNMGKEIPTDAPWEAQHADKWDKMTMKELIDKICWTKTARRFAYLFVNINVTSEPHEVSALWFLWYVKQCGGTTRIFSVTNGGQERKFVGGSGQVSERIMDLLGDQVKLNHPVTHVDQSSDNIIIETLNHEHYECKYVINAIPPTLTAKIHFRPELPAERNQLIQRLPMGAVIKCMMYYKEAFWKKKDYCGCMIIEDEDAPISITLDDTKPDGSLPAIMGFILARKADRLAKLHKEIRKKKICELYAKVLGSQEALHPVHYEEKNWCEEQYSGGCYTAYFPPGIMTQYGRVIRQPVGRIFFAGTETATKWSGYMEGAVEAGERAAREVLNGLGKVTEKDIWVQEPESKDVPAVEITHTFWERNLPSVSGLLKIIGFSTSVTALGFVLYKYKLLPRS
Protocol: (§1) The hMAO-A/B inhibition of all compounds was determined using the Amplex Red MAO assay kit.
(§2) Assays were performed following the general procedure previously described.[98] […] The specific fluorescence emission was calculated after subtracting the background activity, which was determined from wells containing all components except the hMAO isoforms, which were replaced with PBS.

hMAO-B = target: T2, hMAO-B (Homo sapiens, UniProt P27338); test: biochemical; conditions: read-out: hMAO-B (IC50); recombinant hMAO-B, p-tyramine substrate
T2 sequence (P27338 1-520): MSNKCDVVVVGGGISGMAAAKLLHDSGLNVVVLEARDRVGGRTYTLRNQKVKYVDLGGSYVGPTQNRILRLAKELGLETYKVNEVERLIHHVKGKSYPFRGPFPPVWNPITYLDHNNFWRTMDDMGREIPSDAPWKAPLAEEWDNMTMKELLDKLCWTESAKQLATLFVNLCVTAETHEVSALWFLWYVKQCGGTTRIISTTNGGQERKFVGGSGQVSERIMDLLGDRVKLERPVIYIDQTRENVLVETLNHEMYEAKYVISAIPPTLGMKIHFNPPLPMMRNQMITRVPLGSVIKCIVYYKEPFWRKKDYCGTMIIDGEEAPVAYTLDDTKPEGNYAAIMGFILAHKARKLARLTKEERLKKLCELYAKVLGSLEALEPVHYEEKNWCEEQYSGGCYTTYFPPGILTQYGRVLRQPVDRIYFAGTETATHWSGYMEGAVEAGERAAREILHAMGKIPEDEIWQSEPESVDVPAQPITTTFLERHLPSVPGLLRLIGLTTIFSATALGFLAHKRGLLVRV
Protocol: as §1, §2

[1] = test system: NRF2-ARE signaling pathway; test: cells; type: cell-based; conditions: concentration required to double luciferase activity, AREc32 cells, 24 h
QR2 = target: T3, QR2 (Mesocricetus auratus, UniProt A0ABM2YAB8); test: biochemical
T3 sequence (A0ABM2YAB8 1-231): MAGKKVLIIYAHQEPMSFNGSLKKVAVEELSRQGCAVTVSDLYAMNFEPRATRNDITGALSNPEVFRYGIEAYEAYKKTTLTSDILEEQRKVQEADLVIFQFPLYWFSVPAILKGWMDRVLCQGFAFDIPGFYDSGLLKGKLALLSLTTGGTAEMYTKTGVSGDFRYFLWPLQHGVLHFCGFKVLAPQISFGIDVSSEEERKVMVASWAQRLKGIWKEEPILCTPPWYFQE
Protocol: The QR2 experiments were performed in membrane homogenates of hamster brains (https://www.eurofins.fr, catalog ref. 0088). […] First, radioligand displacement was measured at a fixed compound concentration (10 μM) in each receptor.

adult mice NSCs = test: Neurogenic studies in SGZ-derived neurospheres; type: cell-based, mouse; conditions: 10 μM
Protocol: Adult mice NSCs were isolated from SGZ of the dentate gyrus of the hippocampus and grown as free-floating neurospheres (NS).[72],[78] The neurogenic potential of each compound was determined using fluorescence confocal microscopy by quantifying the expression of two well-known neuronal markers: human β-III-tubulin (TuJ-1 clone) and microtubule-associated protein 2 (MAP-2). TuJ-1 is expressed in immature neurons, whereas the expression of MAP-2 indicates a consolidated mature neuronal stage.[79] Given that neurogenesis involves not only the proliferation of NSC but also the migration of newly generated cells, the greatest migration distance promoted by each compound was also measured (Figure 8).
Adult male C57BL/6 mice (3 months old) were used in order to determine neurogenesis activity. […] DAPI staining was used as a nuclear marker. Fluorescent representative images were acquired with a Nikon fluorescence microscope 90i coupled to a digital camera Qi. The microscope configuration was adjusted to produce the optimum signal-to-noise ratio. […] Quantification was undertaken using the image analySIS software (Soft Imaging System Corp., Münster, Germany) and normalized to total nuclei (DAPI-stained). The intensity of immunostaining of neurites from TuJ1-labeled cells and the number of MAP-2-positive cells were estimated from nine neurospheres per condition over three independent experiments. The outgrowth of the neurosphere cells was examined under a phase-contrast microscope and the farthest distance of cell migration was calculated from the edge of the sphere. At least 10 plated neurospheres per treatment were analyzed.

Thermodynamic solubility = type: physicochemical; conditions: phosphate buffer pH 7.4

In the case of `C#CCn1nc(/C=C/c2ccc(OC)cc2)oc1=O` [4e, 5-[(E)-2-(4-Methoxyphenyl)ethenyl]-3-(prop-2-yn-1-yl)-1,3,4-oxadiazol-2(3H)-one], the IC50 (hMAO-A) is reported as > 50 µM, the IC50 (hMAO-B) is reported as 8.05 ± 1.82 µM and the “NRF2 (CD, μM)” value [1] is reported as 9.83 ± 0.6 µM. The IC50 (QR2) was 0.57 ± 0.04 µM, the “TuJ-1 and MAP-2 marked cells” value (adult mice NSCs) was “clearly increased; also recorded: highest expression of young cells (TuJ-1) and mature neurons (MAP-2)” and the cell migration distance (adult mice NSCs) was “extended; also recorded: greatest distance of cell migration”. The solubility thermodynamic (Thermodynamic solubility) was 76.1 µM and 19.5 µg/mL.
